In ChEMBL document CHEMBL1201862, “PubChem BioAssay data set” (2004):
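Compound exposure: 48 hours, 5 concentrations, 96-well plates. GI50 is the concentration that inhibits growth by half.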 Activity calls are given as the source filed them. No stated cut-off is given here; in the data, active = GI50 up to about 1.1 µM and inactive = higher.

What was measured:
Experiment in all cases: growth of human tumour cells (NCI), 48 h
BT-549 = tested on: BT-549
U-251 = tested on: U-251
MDA-N = tested on: MDA-N
K562 = tested on: K562
HOP-92 = tested on: HOP-92
TK-10 = tested on: TK-10
M14 = tested on: M14
UACC-257 = tested on: UACC-257
MCF7 = tested on: MCF7
NCI-H226 = tested on: NCI-H226
A498 = tested on: A498
MDA-MB-435 = tested on: MDA-MB-435
SK-MEL-5 = tested on: SK-MEL-5
HCC 2998 = tested on: HCC 2998
SR = tested on: SR
786-0 = tested on: 786-0
CCRF-CEM = tested on: CCRF-CEM
HCT-116 = tested on: HCT-116
SN12C = tested on: SN12C
SF-268 = tested on: SF-268

Row | SMILES | GI50 (BT-549) | GI50 (U-251) | GI50 (MDA-N) | GI50 (K562) | GI50 (HOP-92) | GI50 (TK-10) | GI50 (M14) | GI50 (UACC-257) | GI50 (MCF7) | GI50 (NCI-H226) | GI50 (A498) | GI50 (MDA-MB-435) | GI50 (SK-MEL-5) | GI50 (HCC 2998) | GI50 (SR) | GI50 (786-0) | GI50 (CCRF-CEM) | GI50 (HCT-116) | GI50 (SN12C) | GI50 (SF-268)
1 | COc1cc(OC)cc(C(=O)NC2=C(Cl)C(=O)c3ccccc3C2=O)c1 | 2.27 µM (inactive) | 1.94 µM (inactive) | 1.91 µM (inactive) | 0.798 µM (active) | 1.45 µM (inactive) | 2.81 µM (inactive) | 1.07 µM (active) | 1.99 µM (inactive) | 2.84 µM (inactive) | 3.3 µM (inactive) | 14.1 µM (inactive) | 1.95 µM (inactive) | 2.04 µM (inactive) | 3.48 µM (inactive) | 1.06 µM (active) | 2.96 µM (inactive) | 0.355 µM (active) | 0.668 µM (active) | 3.15 µM (inactive) | 6.12 µM (inactive)
2 | Cc1ccc(S(=O)(=O)[C@@H](Cl)[C@H]2N=C(Cl)NN=C2c2ccccc2)cc1 | 23.9 µM (inactive) | 21.5 µM (inactive) | 26.1 µM (inactive) | 29.5 µM (inactive) | 23 µM (inactive) | 41.8 µM (inactive) | 21.2 µM (inactive) | 20.6 µM (inactive) | 26.9 µM (inactive) | 26.8 µM (inactive) | 15.5 µM (inactive) | 22.1 µM (inactive) | 15.4 µM (inactive) | 33.8 µM (inactive) | 27.2 µM (inactive) | 26.4 µM (inactive) | 20.3 µM (inactive) | 25.1 µM (inactive) | 21.7 µM (inactive) | 18.3 µM (inactive)
3 | c1ccc2c(c1)nc1n2C2CCC(C2)N1 (stereo not given) | > 10 µM (inactive) | > 10 µM (inactive) | > 10 µM (inactive) | > 10 µM (inactive) | > 10 µM (inactive) | > 10 µM (inactive) | > 10 µM (inactive) | > 10 µM (inactive) | > 10 µM (inactive) | > 10 µM (inactive) | > 10 µM (inactive) | > 10 µM (inactive) | > 10 µM (inactive) | > 10 µM (inactive) | > 10 µM (inactive) | > 10 µM (inactive) | > 10 µM (inactive) | > 10 µM (inactive) | > 10 µM (inactive) | > 10 µM (inactive)
4 | O=P(O)(O)CN1CCNCCN(CP(=O)(O)O)CC1 | > 100 µM (inactive) | > 100 µM (inactive) | 13.6 µM (inactive) | 6.32 µM (inactive) | > 34 µM (inactive) | > 49.4 µM (inactive) | 37.9 µM (inactive) | > 55.3 µM (inactive) | 8.79 µM (inactive) | > 38.5 µM (inactive) | 33.7 µM (inactive) | 36.5 µM (inactive) | 14 µM (inactive) | 12.3 µM (inactive) | 9.44 µM (inactive) | 23 µM (inactive) | 23.6 µM (inactive) | 8.93 µM (inactive) | > 100 µM (inactive) | 75.2 µM (inactive)
5 | C=C1C(=O)OC2C(C)C3C=CC(=O)[C@@]3(C)C(OC(=O)/C(C)=C/C)C1[C@@H]2OC(C)=O (stereo not given in full) | 0.28 µM (active) | 1.15 µM (inactive) | 0.252 µM (active) | 0.374 µM (active) | 0.551 µM (active) | 0.452 µM (active) | 0.673 µM (active) | 0.641 µM (active) | 0.458 µM (active) | 1.73 µM (inactive) | 1.49 µM (inactive) | 0.267 µM (active) | 1.46 µM (inactive) | 1.75 µM (inactive) | 0.168 µM (active) | 0.231 µM (active) | 0.22 µM (active) | 0.319 µM (active) | 0.468 µM (active) | 0.673 µM (active)
6 | Cc1nc(N)nc(S)c1CCC(=O)O | > 100 µM (inactive) | > 100 µM (inactive) | > 100 µM (inactive) | > 100 µM (inactive) | > 100 µM (inactive) | > 100 µM (inactive) | > 100 µM (inactive) | > 100 µM (inactive) | > 100 µM (inactive) | > 100 µM (inactive) | > 100 µM (inactive) | > 100 µM (inactive) | > 100 µM (inactive) | > 100 µM (inactive) | > 100 µM (inactive) | > 100 µM (inactive) | > 100 µM (inactive) | > 100 µM (inactive) | > 100 µM (inactive) | > 100 µM (inactive)
7 | CCN(CC)CCNc1ccc2ncn3c4c(OC)cccc4c(=O)c1c23 | > 10 µM (inactive) | 4.89 µM (inactive) | 4.27 µM (inactive) | 2.67 µM (inactive) | 4.27 µM (inactive) | 12.2 µM (inactive) | 6.34 µM (inactive) | 21.1 µM (inactive) | 2.47 µM (inactive) | 5.86 µM (inactive) | 13.9 µM (inactive) | 6.58 µM (inactive) | 2.38 µM (inactive) | 4.94 µM (inactive) | 3.4 µM (inactive) | 4.83 µM (inactive) | 1.73 µM (inactive) | 0.54 µM (active) | 2.93 µM (inactive) | 3.92 µM (inactive)
8 | c1ccc2nc(CCC3CCCCN3)ccc2c1 (stereo not given) | 61.7 µM (inactive) | > 100 µM (inactive) | 87.7 µM (inactive) | 47.4 µM (inactive) | > 100 µM (inactive) | > 100 µM (inactive) | > 100 µM (inactive) | 42.7 µM (inactive) | > 100 µM (inactive) | > 100 µM (inactive) | 77.6 µM (inactive) | 97.7 µM (inactive) | 38.2 µM (inactive) | > 100 µM (inactive) | 68.5 µM (inactive) | > 100 µM (inactive) | 83.2 µM (inactive) | > 100 µM (inactive) | > 100 µM (inactive) | > 100 µM (inactive)
9 | c1ccc2c(c1)CCN1CCc3ccccc3C1C2 (stereo not given) | 80.7 µM (inactive) | 38.4 µM (inactive) | 12.4 µM (inactive) | 31.2 µM (inactive) | 31 µM (inactive) | 59.6 µM (inactive) | 23.1 µM (inactive) | 62.4 µM (inactive) | > 100 µM (inactive) | 23.6 µM (inactive) | > 100 µM (inactive) | 33 µM (inactive) | 17.7 µM (inactive) | 31.4 µM (inactive) | 47.8 µM (inactive) | 25.1 µM (inactive) | 58.7 µM (inactive) | 17.5 µM (inactive) | 43.4 µM (inactive) | 32.2 µM (inactive)
10 | C=CC(C1=CC(=O)C(OC)=CC1=O)c1ccccc1 (stereo not given) [4-METHOXYDALBERGIONE] | 15.5 µM (inactive) | 15.6 µM (inactive) | 13.8 µM (inactive) | 3.33 µM (inactive) | 4.98 µM (inactive) | 18.1 µM (inactive) | 17.9 µM (inactive) | 19.2 µM (inactive) | 7.48 µM (inactive) | 17.1 µM (inactive) | > 51.2 µM (inactive) | 13.8 µM (inactive) | 16.3 µM (inactive) | 16.7 µM (inactive) | 3.86 µM (inactive) | 14.1 µM (inactive) | 1.91 µM (inactive) | 8.81 µM (inactive) | 14.3 µM (inactive) | 16.3 µM (inactive)
11 | O=C(NO)NCCCl | > 100 µM (inactive) | > 100 µM (inactive) | > 100 µM (inactive) | > 100 µM (inactive) | > 100 µM (inactive) | > 100 µM (inactive) | > 100 µM (inactive) | > 100 µM (inactive) | > 100 µM (inactive) | > 100 µM (inactive) | 49.5 µM (inactive) | > 100 µM (inactive) | > 100 µM (inactive) | > 100 µM (inactive) | > 100 µM (inactive) | > 100 µM (inactive) | > 100 µM (inactive) | > 100 µM (inactive) | > 100 µM (inactive) | > 100 µM (inactive)
12 | CN(CCCCN1CCCC1)CCCCN(C)C(=O)Cc1ccc(Cl)c(Cl)c1 | 18.5 µM (inactive) | 13.6 µM (inactive) | 3.56 µM (inactive) | 2.91 µM (inactive) | 2.88 µM (inactive) | 18.2 µM (inactive) | 17.2 µM (inactive) | 2.52 µM (inactive) | 14 µM (inactive) | 23.7 µM (inactive) | 17.1 µM (inactive) | 2.26 µM (inactive) | 6.43 µM (inactive) | 5.09 µM (inactive) | 2.59 µM (inactive) | 12.3 µM (inactive) | 6.22 µM (inactive) | 14.3 µM (inactive) | 19.1 µM (inactive) | 17.2 µM (inactive)
13 | COc1ccc(C(C)NNC(=O)c2ccncc2)cc1OC (stereo not given) | > 100 µM (inactive) | > 100 µM (inactive) | > 100 µM (inactive) | > 100 µM (inactive) | > 100 µM (inactive) | > 100 µM (inactive) | > 100 µM (inactive) | > 100 µM (inactive) | > 100 µM (inactive) | > 100 µM (inactive) | > 100 µM (inactive) | > 100 µM (inactive) | > 100 µM (inactive) | > 100 µM (inactive) | > 100 µM (inactive) | > 100 µM (inactive) | > 100 µM (inactive) | > 100 µM (inactive) | > 100 µM (inactive) | > 100 µM (inactive)
14 | Cc1sc2nc3n(c(=O)c2c1C)N=CN(c1ccccc1)C3 | > 100 µM (inactive) | 52.4 µM (inactive) | > 100 µM (inactive) | > 100 µM (inactive) | 23.7 µM (inactive) | > 100 µM (inactive) | > 100 µM (inactive) | > 100 µM (inactive) | > 100 µM (inactive) | > 100 µM (inactive) | > 100 µM (inactive) | > 100 µM (inactive) | > 100 µM (inactive) | 60.5 µM (inactive) | > 100 µM (inactive) | 15.8 µM (inactive) | > 100 µM (inactive) | > 100 µM (inactive) | > 100 µM (inactive) | 23.4 µM (inactive)
